The values that follow come from patent publication US20100184664A1, “OPHTHALMIC COMPOSITIONS USEFUL FOR IMPROVING VISUAL ACUITY” (Allergan, Inc., priority 2008, published 2010).

The test system of series [1] is corneal epithelial cells isolated from the rabbit eye. Put plainly: Trans-epithelial electrical resistance (TEER) of layered air-lift corneal epithelial cultures under hypertonic fluid. The settings on record: for TEER (as % of isotonic control) at 22 hours: 2 mM solute in hypertonic fluid (400 mOsmols/kg), 22 hours exposure, isotonic control 100%, hypertonic control 23.3; for % TEER relative to the isotonic control, response to concentration: Example 4, different concentrations, TEER measured from 0 to 24 hours, FIG. 6; for osmoprotective benefit (TEER relative to the hypertonic control), in words: Example 1, 2 mM, 400 mOsmols/kg, 22 hours. The class given is cell-based. An excerpt: In this experiment, corneal epithelial cells were isolated from the rabbit eye and grown under conditions so that they differentiate into a layered “air-lift” culture that includes basal, wing, and squamous cells. As they grow and differentiate, these cultures developed tight junctions between cells that provide the basis for a trans-epithelial electrical resistance (TEER) across the cell layers between the apical and basal surfaces. The TEER value is a sensitive measure of cell growth, differentiation and health.
After 5 days in culture during which the layered structure forms, different culture wells were exposed to hypertonic fluid (400 mOsmols/kg) with or without addition of one of 6 candidate compatible solutes at a low concentration (2 mM). The TEER was then measured after 22 hours of exposure. The TEER value was expressed as a percentage of the TEER value obtained from a similar culture under isotonic (300 mOsmol/kg) conditions.
Example 1 is repeated except that different concentrations of each of the candidate materials are used, and the TEER is measured at various times from 0 to 24 hours.
As in Example 1, the TEER variable is represented as % TEER relative to the isotonic control. […]

A further series deals with ERK MAP Kinase. Put plainly: Beadlyte Cell Signaling Assay, phospho:total ERK MAP Kinase. The class given is cell-based, human. The settings on record: Beadlyte method, FIG. 5. As to the method: (§1) Human corneoscleral tissues, from donors aged 16-59 years were obtained from the Lions Eye Bank of Texas (Houston, Tex.). Corneal epithelial cells were grown from limbal explants. In brief, after carefully removing the central cornea, excess conjunctiva and iris and corneal endothelium, the limbal rim was cut into 12 equal pieces (about 2×2 mm size each). Two of these pieces were placed epithelial side up into each well of 6-well culture plates, and each explant was covered with a drop of fetal bovine serum (FBS) overnight. The explants were then cultured in SHEM medium, which was an 1:1 mixture of Dulbecco modified Eagle medium (DMEM) and Ham F-12 medium containing 5 ng/mL EGF, 5 μg/mL insulin, 5 μg/mL transferrin, 5 ng/mL sodium selenite, 0.5 μg/mL hydrocortisone, 30 ng/mL cholera toxin A, 0.5% DMSO, 50 μg/mL gentamicin, 1.25 μg/mL amphotericin B and 5% FBS, at 37° C. under 5% CO2 and 95% humidity. The medium was renewed every 2-3 days. Epithelial phenotype of these cultures was confirmed by characteristic morphology and immuno-fluorescent staining with cytokeratin antibodies (AE-1/AE-3).
(§2) A series of primary sub-confluent corneal epithelial cultures (grown for 12 to 14 days, about 4-5×10^5 cells/well) were washed three times with […] buffered saline (PBS) and switched to an Earle's Balanced Salt Solution (EBSS, 300 mOsmols/kg) for 24 hours before treatment. The corneal epithelial cells were cultured for 1 hour in an equal volume (2.0 mL/well) of EBSS media or 400 mOsmols/kg media by adding 53 mM NaCl or sucrose, with either L-carnitine inner salt, betaine hydrochloride, erythritol, or xylitol (all at a concentration of 2 mM) that were pre-added 60 minutes before adding NaCl or sucrose. Samples without these osmoprotectants were also prepared and tested.
(§3) The adherent cells were lysed in Beadlyte® Buffer B (included in the Beadlyte® Cell Signaling buffer kit, Upstate Biotechnology, Lake Placid, N.Y.) containing an EDTA-free protease inhibitor cocktail tablet (Roche Applied Science, Indianapolis, Ind.) for 15 minutes. The cell extracts were centrifuged at 12,000×g for 15 minutes at room temperature and the supernatants were stored at −80° C. until they were analyzed by Western blot analysis. The total protein concentrations of the cell extracts were determined using a Micro BCA protein assay kit (Pierce, Rockford, Ill.). […]
(§4) The beads were washed and mixed with biotinylated specific reporter antibodies for phospho-MAPK or total-MAPK, followed by streptavidin-phycoerythrin. The amount of total or phospho-MAPK was then quantified by the Luminex 100™ system (Luminex, Austin, Tex.). Fifty events per bead were read, and the data output obtained from the Bio-Plex Manager software were exported to Microsoft Excel® for further analysis. […]

Series [2] has as its system phosphorylated c-jun N-terminal kinases (p-JNK1 and p-JNK2). Put plainly: Western blot analysis of phosphorylated JNK1 and JNK2 in primary corneal epithelial cultures under hyperosmolar media. It counts as cell-based, human. The settings on record: 2 mM; for levels of JNK1 and JNK2 in 300 mOsmols/kg cultures: FIG. 2; for JNK activation (levels of JNK1 and JNK2, Western blot intensity) compared to 400 mOsmols/kg media alone: pre-added 60 minutes, 1 hour, FIGS. 1 and 2. As to the method:
as §1, §2
The adherent cells were lysed in Beadlyte® Buffer B (included in the Beadlyte® Cell Signaling buffer kit, Upstate Biotechnology, Lake Placid, N.Y.) containing an EDTA-free protease inhibitor cocktail tablet (Roche Applied Science, Indianapolis, Ind.) for 15 minutes. The cell extracts were centrifuged at 12,000×g for 15 minutes at room temperature and the supernatants were stored at −80° C. until they were analyzed by Western blot analysis. The total protein concentrations of the cell extracts were determined using a Micro BCA protein assay kit (Pierce, Rockford, Ill.).
The intensity of each of JNK1 and JNK2 was tested for each of these compositions using Western blot analysis with specific antibodies to each phosphorylated species.
The Western blot analysis was conducted as follows. The protein samples (50 μg per lane) were mixed with 6×SDS reducing sample buffer and boiled for 5 minutes before loading. Proteins were separated by SDS polyacrylamide gel electrophoresis (4-15% Tris-HCl, gradient gels from Bio-Rad, Hercules, Calif.), and transferred electronically to polyvinylidine difluoride (PVDF) membranes (Millipore, Bedford, Mass.). The membranes were blocked with 5% non-fat milk in TTBS (50 mM Tris, pH 7.5, 0.9% NaCl, and 0.1% Tween-20) for 1 hour at room temperature (RT), and then incubated 2 hours at RT with a 1:1000 dilution of rabbit antibody against phospho-p38 MAPK (Cell Signaling, Beverly, Mass.), 1:100 dilution of rabbit antibody against phospho-JNK, or 1:500 dilution of monoclonal antibody against phospho-p44/42 ERK (Santa Cruz Biotechnology, Santa Cruz, Calif.).
After three washings with TTBS, the membranes were incubated for 1 hour at RT with horseradish peroxidase-conjugated secondary antibody goat anti-rabbit IgG (1:2000 dilution, Cell Signaling, Beverly, Mass.), or goat anti-mouse IgG (1:5000 dilution, Pierce, Rockford, Ill.). After washing the membranes four times, the signals were detected with an ECL advance chemiluminescence reagent (Amersham, Piscataway, N.J.) and the images were acquired by a Kodak image station 2000R (Eastman Kodak, New Haven, Conn.). […]
(A western blot detects proteins with antibodies after separation by electrophoresis.)

For the next series, the system named is p38 MAP Kinase. Put plainly: Beadlyte Cell Signaling Assay, phospho:total p38 MAP Kinase. It counts as cell-based, human. The conditions noted are these: Beadlyte method, FIG. 4. As to the method:
Human corneoscleral tissues, from donors aged 16-59 years were obtained from the Lions Eye Bank of Texas (Houston, Tex.). Corneal epithelial cells were grown from limbal explants. In brief, after carefully removing the central cornea, excess conjunctiva and iris and corneal endothelium, the limbal rim was cut into 12 equal pieces (about 2×2 mm size each). Two of these pieces were placed epithelial side up into each well of 6-well culture plates, and each explant was covered with a drop of fetal bovine serum (FBS) overnight. […]
as §3
The beads were washed and mixed with biotinylated specific reporter antibodies for phospho-MAPK or total-MAPK, followed by streptavidin-phycoerythrin. The amount of total or phospho-MAPK was then quantified by the Luminex 100™ system (Luminex, Austin, Tex.). […]

Series [3] in a line: Component compatibility with stabilized chlorine dioxide preservative. It counts as physicochemical. The conditions noted are these: composition including betaine and stabilized chlorine dioxide. The method, then:
A composition including betaine and stabilized chlorine dioxide, as a preservative, was tested for component compatibility. […] Thus, betaine is not useful with is certain preservatives, such as stabilized chlorine dioxide. However, betaine may advantageously be employed as a compatible solute in ophthalmic compositions which use other preservative systems, or which are free of preservatives, for example, in single or unit-dose applications.

Another series relates to phospho-JNK / total JNK. Briefly: Beadlyte Cell Signaling Assay, phosphorylated:total JNK. The class given is cell-based, human. The conditions noted are these: Beadlyte method, FIG. 3. The method, then:
as §1, §2, §3, §4

With `C[N+](C)(C)CC(=O)O` [Betaine, betaine (trimethyl glycine)], in series [1], the “TEER (as % of isotonic control) at 22 hours” value came to 53.3% and the “% TEER relative to the isotonic control, response to concentration” value (from here on “% TEER relative to the isotonic control”) is listed as “dose-related response”. For the same compound, the “amount of ERK relative to the hypertonic control” value in the series on ERK MAP Kinase is recorded as “did not”. Also, in series [2], the “levels of JNK1 and JNK2 in 300 mOsmols/kg cultures” value is “less robust effect”; the “JNK activation (levels of JNK1 and JNK2, Western blot intensity) compared to 400 mOsmols/kg media alone” value is recorded as “definite decrease”. For the same compound, the “amount of phospho-total p38 relative to the hypertonic control” value with p38 MAP Kinase was “exception”. Moreover, the “component compatibility with stabilized chlorine dioxide (Purite7) preservative” value in series [3] is recorded as “not fully compatible”. In the series with phospho-JNK / total JNK, the “amount of phospho-total JNK relative to the hypertonic control” value is on record as “reduced”.
With `C[N+](C)(C)C[C@H](O)CC(=O)[O-]` [Carnitine], in series [1], the “TEER (as % of isotonic control) at 22 hours” value came to 118.9%; the “osmoprotective benefit (TEER relative to the hypertonic control), in words” value was “most benefit”; the “% TEER relative to the isotonic control” value is “dose-related response”. For the same compound, in the series on ERK MAP Kinase, the “amount of ERK relative to the hypertonic control” value is given as “did not”. In addition, in series [2], the “levels of JNK1 and JNK2 in 300 mOsmols/kg cultures” value is “less robust effect”; the “JNK activation (levels of JNK1 and JNK2, Western blot intensity) compared to 400 mOsmols/kg media alone” value was “definite decrease”. Besides, the “amount of phospho-total JNK relative to the hypertonic control” value in the series on phospho-JNK / total JNK was “reduced”.
As for `OC[C@@H](O)[C@@H](O)CO` [Erythritol], in series [1], the “TEER (as % of isotonic control) at 22 hours” value worked out at 107.4%; the “osmoprotective benefit (TEER relative to the hypertonic control), in words” value is “best results among the polyols tested”; the “% TEER relative to the isotonic control” value is recorded as “dose-related response”. Besides, in the series on ERK MAP Kinase, the “amount of ERK relative to the hypertonic control” value is on record as “reduced”. In addition, the “JNK activation (levels of JNK1 and JNK2, Western blot intensity) compared to 400 mOsmols/kg media alone” value in series [2] was “no effect”. In the series with phospho-JNK / total JNK, the “amount of phospho-total JNK relative to the hypertonic control” value is reported as “reduced”.
On to `O[C@H]1[C@H](O)[C@@H](O)[C@H](O)[C@@H](O)[C@H]1O` [Myo-Inositol], for which, in series [1], the “TEER (as % of isotonic control) at 22 hours” value is on record as 74.8% and the “osmoprotective benefit (TEER relative to the hypertonic control), in words” value is “good results”.
`NCCS(=O)(=O)O` [Taurine]: the “TEER (as % of isotonic control) at 22 hours” value in series [1] stood at 39.8%.
In the case of `OC[C@@H](O)[C@H](O)[C@@H](O)CO` [Xylitol], in series [1], the “TEER (as % of isotonic control) at 22 hours” value is reported as 94.1% and the “osmoprotective benefit (TEER relative to the hypertonic control), in words” value is given as “good results”. The “amount of ERK relative to the hypertonic control” value in the series with ERK MAP Kinase was “reduced”. Besides, the “JNK activation (levels of JNK1 and JNK2, Western blot intensity) compared to 400 mOsmols/kg media alone” value in series [2] was “no effect”. For the same compound, the “amount of phospho-total JNK relative to the hypertonic control” value with phospho-JNK / total JNK is listed as “reduced”.
